Measurements reported in the NIST ThermoML archive (doi:10.1021/je060355j).
± gives the expanded uncertainty stated by the source.

Tests used:
[1] = excess molar enthalpy (molar enthalpy of mixing); xn = mol fraction of the nth substance listed; settings: 101.32 kPa, Liquid
[2] = xn = mol fraction of the nth substance listed; settings: 101.32 kPa, Liquid

SMILES: CCCCOC=O [butyl methanoate] + CCCCCC
- excess molar enthalpy ([1]; 291.15 K, x1 = 0.0865): 0.322 ± 0.0073 kJ/mol
- excess molar enthalpy ([1]; 291.15 K, x1 = 0.1588): 0.562 ± 0.011 kJ/mol
- excess molar enthalpy ([1]; 291.15 K, x1 = 0.2303): 0.764 ± 0.014 kJ/mol
- excess molar enthalpy ([1]; 291.15 K, x1 = 0.2973): 0.905 ± 0.016 kJ/mol
- excess molar enthalpy ([1]; 291.15 K, x1 = 0.3551): 0.99 ± 0.017 kJ/mol
- excess molar enthalpy ([1]; 291.15 K, x1 = 0.4081): 1.04 ± 0.018 kJ/mol
- excess molar enthalpy ([1]; 291.15 K, x1 = 0.454): 1.06 ± 0.018 kJ/mol
- excess molar enthalpy ([1]; 291.15 K, x1 = 0.5114): 1.05 ± 0.018 kJ/mol
- excess molar enthalpy ([1]; 291.15 K, x1 = 0.5606): 1.02 ± 0.017 kJ/mol
- excess molar enthalpy ([1]; 291.15 K, x1 = 0.6177): 0.953 ± 0.016 kJ/mol
- excess molar enthalpy ([1]; 291.15 K, x1 = 0.6775): 0.86 ± 0.015 kJ/mol
- excess molar enthalpy ([1]; 291.15 K, x1 = 0.7406): 0.738 ± 0.013 kJ/mol
- excess molar enthalpy ([1]; 291.15 K, x1 = 0.8067): 0.585 ± 0.011 kJ/mol
- excess molar enthalpy ([1]; 291.15 K, x1 = 0.873): 0.401 ± 0.0083 kJ/mol
- excess molar enthalpy ([1]; 291.15 K, x1 = 0.94): 0.213 ± 0.0056 kJ/mol
- excess molar enthalpy ([1]; 318.15 K, x1 = 0.0808): 0.44 ± 0.009 kJ/mol
- excess molar enthalpy ([1]; 318.15 K, x1 = 0.1626): 0.705 ± 0.013 kJ/mol
- excess molar enthalpy ([1]; 318.15 K, x1 = 0.2415): 0.908 ± 0.016 kJ/mol
- excess molar enthalpy ([1]; 318.15 K, x1 = 0.311): 1.04 ± 0.018 kJ/mol
- excess molar enthalpy ([1]; 318.15 K, x1 = 0.3823): 1.12 ± 0.019 kJ/mol
- excess molar enthalpy ([1]; 318.15 K, x1 = 0.4464): 1.15 ± 0.019 kJ/mol
- excess molar enthalpy ([1]; 318.15 K, x1 = 0.4882): 1.15 ± 0.019 kJ/mol
- excess molar enthalpy ([1]; 318.15 K, x1 = 0.5104): 1.15 ± 0.019 kJ/mol
- excess molar enthalpy ([1]; 318.15 K, x1 = 0.5661): 1.11 ± 0.019 kJ/mol
- excess molar enthalpy ([1]; 318.15 K, x1 = 0.63): 1.05 ± 0.018 kJ/mol
- excess molar enthalpy ([1]; 318.15 K, x1 = 0.7075): 0.916 ± 0.016 kJ/mol
- excess molar enthalpy ([1]; 318.15 K, x1 = 0.7904): 0.731 ± 0.013 kJ/mol
- excess molar enthalpy ([1]; 318.15 K, x1 = 0.868): 0.506 ± 0.0099 kJ/mol
- excess molar enthalpy ([1]; 318.15 K, x1 = 0.9412): 0.27 ± 0.0066 kJ/mol
- mass density ([2]; 291.15 K, x1 = 0.0445): 669.6 ± 2 kg/m3
- mass density ([2]; 291.15 K, x1 = 0.09): 678.6 ± 2 kg/m3
- mass density ([2]; 291.15 K, x1 = 0.1461): 689.8 ± 2 kg/m3
- mass density ([2]; 291.15 K, x1 = 0.1928): 699.5 ± 2 kg/m3
- mass density ([2]; 291.15 K, x1 = 0.249): 711.4 ± 2 kg/m3
- mass density ([2]; 291.15 K, x1 = 0.3018): 722.7 ± 2 kg/m3
- mass density ([2]; 291.15 K, x1 = 0.4025): 745.2 ± 1.9 kg/m3
- mass density ([2]; 291.15 K, x1 = 0.5021): 768.3 ± 1.9 kg/m3
- mass density ([2]; 291.15 K, x1 = 0.5957): 790.7 ± 2 kg/m3
- mass density ([2]; 291.15 K, x1 = 0.6963): 815.7 ± 2 kg/m3
- mass density ([2]; 291.15 K, x1 = 0.7541): 830.4 ± 2.1 kg/m3
- mass density ([2]; 291.15 K, x1 = 0.802): 842.7 ± 2.1 kg/m3
- mass density ([2]; 291.15 K, x1 = 0.8532): 856.1 ± 2.2 kg/m3
- mass density ([2]; 291.15 K, x1 = 0.8987): 868.2 ± 2.2 kg/m3
- mass density ([2]; 291.15 K, x1 = 0.9575): 884.3 ± 2.3 kg/m3
- mass density ([2]; 291.15 K, x1 = 1): 896 ± 2.4 kg/m3
- mass density ([2]; 298.15 K, x1 = 0.0729): 669.39 ± 2 kg/m3
- mass density ([2]; 298.15 K, x1 = 0.1321): 681.03 ± 2 kg/m3
- mass density ([2]; 298.15 K, x1 = 0.1967): 694.2 ± 2 kg/m3
- mass density ([2]; 298.15 K, x1 = 0.2658): 708.76 ± 2 kg/m3
- mass density ([2]; 298.15 K, x1 = 0.336): 723.94 ± 2 kg/m3
- mass density ([2]; 298.15 K, x1 = 0.3698): 731.4 ± 2 kg/m3
- mass density ([2]; 298.15 K, x1 = 0.4886): 758.31 ± 2 kg/m3
- mass density ([2]; 298.15 K, x1 = 0.5876): 781.81 ± 2 kg/m3
- mass density ([2]; 298.15 K, x1 = 0.6855): 805.81 ± 2 kg/m3
- mass density ([2]; 298.15 K, x1 = 0.7677): 826.55 ± 2.1 kg/m3
- mass density ([2]; 298.15 K, x1 = 0.8136): 838.26 ± 2.1 kg/m3
- mass density ([2]; 298.15 K, x1 = 0.8574): 849.77 ± 2.2 kg/m3
- mass density ([2]; 298.15 K, x1 = 0.8986): 860.63 ± 2.2 kg/m3
- mass density ([2]; 298.15 K, x1 = 0.9227): 867.09 ± 2.3 kg/m3
- mass density ([2]; 298.15 K, x1 = 0.9714): 880.08 ± 2.3 kg/m3
- mass density ([2]; 298.15 K, x1 = 1): 888.66 ± 2.4 kg/m3
- mass density ([2]; 308.15 K, x1 = 0.047): 654.6 ± 2.1 kg/m3
- mass density ([2]; 308.15 K, x1 = 0.1095): 666.7 ± 2.1 kg/m3
- mass density ([2]; 308.15 K, x1 = 0.1485): 674.6 ± 2.1 kg/m3
- mass density ([2]; 308.15 K, x1 = 0.2005): 685.2 ± 2 kg/m3
- mass density ([2]; 308.15 K, x1 = 0.2579): 697.2 ± 2 kg/m3
- mass density ([2]; 308.15 K, x1 = 0.2981): 705.7 ± 2 kg/m3
- mass density ([2]; 308.15 K, x1 = 0.4033): 728.8 ± 2 kg/m3
- mass density ([2]; 308.15 K, x1 = 0.5098): 753.1 ± 2 kg/m3
- mass density ([2]; 308.15 K, x1 = 0.6081): 776.4 ± 2 kg/m3
- mass density ([2]; 308.15 K, x1 = 0.7112): 801.8 ± 2.1 kg/m3
- mass density ([2]; 308.15 K, x1 = 0.7576): 813.5 ± 2.1 kg/m3
- mass density ([2]; 308.15 K, x1 = 0.8073): 826.3 ± 2.2 kg/m3
- mass density ([2]; 308.15 K, x1 = 0.8511): 837.7 ± 2.2 kg/m3
- mass density ([2]; 308.15 K, x1 = 0.9081): 852.9 ± 2.3 kg/m3
- mass density ([2]; 308.15 K, x1 = 0.9598): 867.3 ± 2.3 kg/m3
- mass density ([2]; 308.15 K, x1 = 1): 878.24 ± 2.4 kg/m3
- mass density ([2]; 318.15 K, x1 = 0.0493): 645.6 ± 2.1 kg/m3
- mass density ([2]; 318.15 K, x1 = 0.0857): 652.7 ± 2.1 kg/m3
- mass density ([2]; 318.15 K, x1 = 0.1192): 659.1 ± 2.1 kg/m3
- mass density ([2]; 318.15 K, x1 = 0.1589): 666.9 ± 2.1 kg/m3
- mass density ([2]; 318.15 K, x1 = 0.1975): 674.7 ± 2.1 kg/m3
- mass density ([2]; 318.15 K, x1 = 0.2452): 684.5 ± 2.1 kg/m3
- mass density ([2]; 318.15 K, x1 = 0.3006): 696.2 ± 2.1 kg/m3
- mass density ([2]; 318.15 K, x1 = 0.4015): 718 ± 2 kg/m3
- mass density ([2]; 318.15 K, x1 = 0.495): 739.2 ± 2 kg/m3
- mass density ([2]; 318.15 K, x1 = 0.5929): 762.2 ± 2.1 kg/m3
- mass density ([2]; 318.15 K, x1 = 0.705): 789.5 ± 2.1 kg/m3
- mass density ([2]; 318.15 K, x1 = 0.746): 799.7 ± 2.1 kg/m3
- mass density ([2]; 318.15 K, x1 = 0.8134): 817.05 ± 2.2 kg/m3
- mass density ([2]; 318.15 K, x1 = 0.9067): 841.5 ± 2.3 kg/m3
- mass density ([2]; 318.15 K, x1 = 0.9647): 857.1 ± 2.4 kg/m3
- mass density ([2]; 318.15 K, x1 = 1): 867.21 ± 2.4 kg/m3
